Assay results reported in the supplement of paper PMC11451515.

System: NOMO1
Experiment: cell viability relative to DMSO control; higher = less cytotoxic
Conditions: 48 h
Outline: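 Viability was expressed as a per-plate percentage of DMSO wells, with cell-free wells as background. Leukemia cells (NOMO1 or SEM at 500 cells/well, P12-Ichikawa at 1000 cells/well) were adapted for at least four passages in each medium and seeded in 1536-well plates (5 μl). Library compounds in DMSO were pin-dosed over an 11-point threefold series from 47 μM to 0.79 nM, and CellTiter-Glo One luminescence was read after 48 h at 37°C.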

[1] = RPMI 5 mM glucose + 10% FBS, 0.000781 µM
[2] = RPMI 5 mM glucose + 10% FBS, 0.00234 µM
[3] = RPMI 5 mM glucose + 10% FBS, 0.00702 µM
[4] = RPMI 5 mM glucose + 10% FBS, 0.0211 µM
[5] = RPMI 5 mM glucose + 10% FBS, 0.0632 µM
[6] = RPMI 5 mM glucose + 10% FBS, 0.19 µM
[7] = RPMI 5 mM glucose + 10% FBS, 0.569 µM
[8] = RPMI 5 mM glucose + 10% FBS, 1.71 µM
[9] = RPMI 5 mM glucose + 10% FBS, 5.12 µM
[10] = RPMI 5 mM glucose + 10% FBS, 15.4 µM
[11] = RPMI 5 mM glucose + 10% FBS, 46.1 µM
[12] = RPMI 5 mM glucose + 10% dialyzed FBS, 0.000781 µM
[13] = RPMI 5 mM glucose + 10% dialyzed FBS, 0.00234 µM
[14] = RPMI 5 mM glucose + 10% dialyzed FBS, 0.00702 µM
[15] = RPMI 5 mM glucose + 10% dialyzed FBS, 0.0211 µM
[16] = RPMI 5 mM glucose + 10% dialyzed FBS, 0.0632 µM
[17] = RPMI 5 mM glucose + 10% dialyzed FBS, 0.19 µM
[18] = RPMI 5 mM glucose + 10% dialyzed FBS, 0.569 µM
[19] = RPMI 5 mM glucose + 10% dialyzed FBS, 1.71 µM
[20] = RPMI 5 mM glucose + 10% dialyzed FBS, 5.12 µM
[21] = RPMI 5 mM glucose + 10% dialyzed FBS, 15.4 µM
[22] = RPMI 5 mM glucose + 10% dialyzed FBS, 46.1 µM
[23] = HPLM + 10% dialyzed FBS, 0.000781 µM
[24] = HPLM + 10% dialyzed FBS, 0.00234 µM
[25] = HPLM + 10% dialyzed FBS, 0.00702 µM
[26] = HPLM + 10% dialyzed FBS, 0.0211 µM
[27] = HPLM + 10% dialyzed FBS, 0.0632 µM
[28] = HPLM + 10% dialyzed FBS, 0.19 µM
[29] = HPLM + 10% dialyzed FBS, 0.569 µM
[30] = HPLM + 10% dialyzed FBS, 1.71 µM
[31] = HPLM + 10% dialyzed FBS, 5.12 µM
[32] = HPLM + 10% dialyzed FBS, 15.4 µM
[33] = HPLM + 10% dialyzed FBS, 46.1 µM

| Structure (SMILES) | cell viability [1] | cell viability [2] | cell viability [3] | cell viability [4] | cell viability [5] | cell viability [6] | cell viability [7] | cell viability [8] | cell viability [9] | cell viability [10] | cell viability [11] | cell viability [12] | cell viability [13] | cell viability [14] | cell viability [15] | cell viability [16] | cell viability [17] | cell viability [18] | cell viability [19] | cell viability [20] | cell viability [21] | cell viability [22] | cell viability [23] | cell viability [24] | cell viability [25] | cell viability [26] | cell viability [27] | cell viability [28] | cell viability [29] | cell viability [30] | cell viability [31] | cell viability [32] | cell viability [33] |
| --- | --- | --- | --- | --- | --- | --- | --- | --- | --- | --- | --- | --- | --- | --- | --- | --- | --- | --- | --- | --- | --- | --- | --- | --- | --- | --- | --- | --- | --- | --- | --- | --- | --- |
| CC(C)(C)C1=CC(=C(NC(=O)C/2=C/NC3=C(C=CC=C3)C2=O)C=C1O)C(C)(C)C | 120% | 108% | 118% | 128% | 136% | 124% | 121% | 116% | 114% | 111% | 103% |  |  |  |  |  |  |  |  |  |  |  |  |  |  |  |  |  |  |  |  |  |  |
| CCOC(=O)[C@H]1O[C@@H]1C(=O)N[C@@H](CC(C)C)C(=O)NCCC(C)C | 114% | 107% | 107% | 117% | 123% | 116% | 114% | 104% | 102% | 92.2% | 12.6% | 114% | 112% | 121% | 126% | 106% | 121% | 113% | 109% | 102% | 112% | 15.1% |  |  |  |  |  |  |  |  |  |  |  |
| C[N]1C=C(C=N1)C2=CC=C3N=CC\4=C(N(C(=O)\C=C4)C5=CC6=C(CCN6C(=O)C=C)C=C5)C3=C2 | 100% | 104% | 108% | 95.2% | 102% | 109% | 95.7% | 88.8% | 69.3% | 13.5% | 9.25% | 105% | 108% | 109% | 119% | 97.2% | 107% | 96% | 90.6% | 47.4% | 6.23% | 5.9% |  |  |  |  |  |  |  |  |  |  |  |
| NC(CO)C(=O)NNCc1ccc(O)c(O)c1O (configuration not stated) | 85.6% | 101% | 96.3% | 95.9% | 94.4% | 94.1% | 89.4% | 85% | 84.3% | 83.7% | 82.9% | 89.4% | 102% | 107% | 90.8% | 98.8% | 102% | 91.9% | 90% | 96% | 92.7% | 82.6% | 96.1% | 104% | 106% | 93.5% | 107% | 107% | 91.6% | 88.1% | 90.6% | 89% | 77.2% |
| O=C(O)Cc1cccc(OCCCN(Cc2cccc(C(F)(F)F)c2Cl)CC(c2ccccc2)c2ccccc2)c1 |  |  |  |  |  |  |  |  |  |  |  |  |  |  |  |  |  |  |  |  |  |  | 122% | 123% | 136% | 110% | 114% | 108% | 118% | 99.3% | 106% | 118% | 114% |
| COc1cc(Cl)cn2c(-c3cccc(NC4CNC4)n3)cnc12 |  |  |  |  |  |  |  |  |  |  |  |  |  |  |  |  |  |  |  |  |  |  | 123% | 115% | 118% | 142% | 152% | 148% | 141% | 150% | 129% | 129% | 111% |
| C[C@@H](N)C1CC[C@@H](CC1)C(=O)NC2=CC=NC=C2 (some centres not stated) | 114% | 97.3% | 114% | 106% | 101% | 120% | 122% | 104% | 123% | 93.5% | 93.1% | 113% | 105% | 110% | 91% | 105% | 116% | 115% | 113% | 113% | 94.1% | 90% | 98.8% | 114% | 117% | 126% | 123% | 136% | 128% | 132% | 119% | 113% | 100% |
| CCOC(=O)O[C@]1(C(=O)OCCl)CC[C@H]2[C@@H]3CCC4=CC(=O)C=C[C@]4(C)[C@H]3[C@@H](O)C[C@@]21C | 98.4% | 88.2% | 96.2% | 84.2% | 82.2% | 94.6% | 85.7% | 87.5% | 87.1% | 89.3% | 95% | 88.1% | 95.1% | 93.2% | 87.4% | 91% | 100% | 88.6% | 98.2% | 75.8% | 80.2% | 93.4% | 101% | 95.9% | 103% | 105% | 103% | 108% | 110% | 99.3% | 95.3% | 84.3% | 82% |
| Clc1ccccc1C(c1ccccc1)(c1ccccc1)n1ccnc1 | 103% | 122% | 114% | 122% | 111% | 110% | 114% | 103% | 95% | 92.7% | 69.1% | 119% | 114% | 119% | 110% | 116% | 117% | 124% | 104% | 113% | 111% | 80.3% | 120% | 115% | 125% | 123% | 116% | 114% | 123% | 105% | 108% | 101% | 78.6% |
| COC(=O)C/1=C(C)/N/C(=C(\C1C2=CC(=CC=C2)[N+]([O-])=O)C(=O)OCCCN3CCC(CC3)(C4=CC=CC=C4)C5=CC=CC=C5)C (configuration not stated) | 101% | 99.2% | 93% | 92.4% | 97.7% | 93.5% | 88.3% | 90.7% | 83.3% | 95.3% | 81.8% | 107% | 93.8% | 95.5% | 97.1% | 107% | 109% | 101% | 94.4% | 91.2% | 90.5% | 98.7% | 117% | 114% | 104% | 104% | 108% | 114% | 107% | 107% | 100% | 102% | 87.1% |
